Measurements: patent US20010012893A1, “Acyclovir diester derivatives” (Drug Innovation & Design, Inc., priority 1997, published 2001)
Entries after “also recorded” stand apart in the source; their conditions may differ.

Key:
[1] = test system: HSV-1; assay: Dermal HSV-1 infection in guinea pigs, topical treatment, compared with placebo/vehicle; type: in vivo; details: guinea pig; for reduction in lesion area (in words) / reduction in lesion number (in words) / reduction in lesion virus titer / skin viral titres (in words): dermal HSV-1, topical, compared to vehicle or to Prodrug 1
Method: The formulation for Prodrug 1 contained 5% EL-620 EMULPHOR (polyoxyethylated castor oil) (Rhone Poluenc), 5% CARBOPOL (Carboxypolymethylene, sodium salt) (B. F. Goodrich), 10% ethanol and 2% by weight Prodrug 1. The balance of the formulation consisted of water.
EL-620 EMULPHOR and water were mixed and ultrasonicated to give a clear emulsion, to which the ethanol was added. The prodrug was then added, and the mixture was ultrasonicated. The sodium carbopol was then added to the emulsion and mixed until to homogeneity.
The placebo was prepared identically to the pharmaceutical compositions except that the prodrugs were omitted.
Female Hartley outbred guinea pigs, 400 to 450 grams, were obtained from Charles River Breeding Labs, Wilmington, Mass. Animals were anesthetized with 25 mg/kg ketamine and 5 mg/kg xylazine SQ. Hair on the dorsum from the shoulders to the rump was removed with electric clippers followed by two 5-10 minute applications of a chemical depilatory. A grid of four areas was demarcated with a pen on both sides of the spine at levels corresponding to mid back and rump.
Undiluted HSV-1 virus stock (0.035 ml) was applied to each different area and introduced through the skin at well-spaced sites at ten activations of a six-pronged spring-loaded vaccination instrument (Sterneedle, Pan Ray Division, Ormont Drug, Englewood, N.J.). The day of inoculation is Day 0. Approximately 250 mg of drug or placebo was applied to the areas according to the dosing regimen on Days 1, 2 and 3. Eight guinea pigs were used during the experiments allowing eight comparisons between each drug and its placebo.
On Day 4 regrown hair on the dorsum of the guinea pigs was removed with one 3-4 minute application of a chemical depilatory. HSV lesions were counted and Polaroid pictures of the animals' backs were taken. The animals were sacrificed using CO2 gas and the full thickness skin of the back was removed by dissection. The square of the skin from each of the four treatment areas was placed into 15 mls of tissue culture medium with 2% FBS in an ice bath. The samples were then homogenized in a stomacher Lab Blender 80 (Tekmar Co.). Debris was pelleted by centrifugation and the supernatants collected and frozen at −70° C. until assay for infectivity by plaque formation in VERO cells.
The mean and standard deviation for number of lesions, total lesion area and lesion virus titer were computed. Paired data (drug/vehicle) were evaluated by the Wilcoxon signed-rank test using percent differences between log10 derivatives of mean lesions severity at drug-treated sites compared to the vehicle-treated sites.
Prodrug 2 was formulated as described in Example 1. One Hartley guinea pig was inoculated with HSV-1 as described in Example 1. The guinea pig was treated with Prodrug 2 according to the protocol used in Example 1 for Prodrug 1.

[2] = test system: pig liver esterase; assay: Incubation with pig liver esterase in phosphate buffered D2O, followed by NMR; type: in vitro ADME
Excerpt: This assay is described in Glazier, WO 91/19721 entitled “Phosphorus Prodrugs” and can be used to determine suitable hydroxyl or amino protecting groups which can be cleaved in vivo. The entire teachings of […] are incorporated herein by reference. It is to be understood that there are other in vitro assays known to one of ordinary skill in the art employing esterases, amidases or enzymes capable of cleaving carbonate, carbamate, ester and amide groups which can also be used to determine suitable protecting groups.

[3] = test system: herpes simplex labialis; details: cited from earlier work
[4] = dermal HSV-1, topical 2% formulation, Days 1-3, read Day 4, p<0.01

| Compound | reduction in lesion area compared with placebo [1, 4] [%] | reduction in lesion number compared with placebo [1, 4] [%] | reduction in skin viral titres compared with placebo ([1]; dermal HSV-1, topical 2% formulation, Days 1-3, read Day 4, plaque formation in VERO cells, p<0.01) [%] | reduction in lesion area (in words) [1] | reduction in lesion number (in words) [1] | reduction in lesion virus titer / skin viral titres (in words) [1] | degradation products with esterase [2] | effectiveness of oral administration for cold sores ([3]; oral) | response of cold sores to topical treatment ([3]; topical) |
| --- | --- | --- | --- | --- | --- | --- | --- | --- | --- |
| COC(=O)CC(OP(=O)([O-])OCCOCn1cnc2c(=O)[nH]c(N)nc21)c1ccc(OC(=O)C(C)(C)C)cc1.[Na+] (stereo not drawn) [Prodrug 1] | 79 | 72 | 93 | dramatic reduction | dramatic reduction | dramatic reduction | degraded to acyclovir monophosphate and p-hydroxycinnamic | – | – |
| COC(=O)CC(OP(=O)([O-])OCCOCn1cnc2c(=O)[nH]c(N)nc21)c1ccc(OC(C)=O)cc1.[Na+] (stereo not drawn) [Prodrug 2] | – | – | – | comparable reduction; also recorded: dramatic reduction | comparable reduction; also recorded: dramatic reduction | comparable reduction; also recorded: dramatic reduction | – | – | – |
| Nc1nc2c(ncn2COCCO)c(=O)[nH]1 [acyclovir] | – | – | – | – | – | – | – | only partially effective | do not respond |
